The values that follow come from US11192867B2, “Microbiocidal oxadiazole derivatives” (SYNGENTA PARTICIPATIONS AG, priority 2016, dated 2021).

Assay [1] has as its system Glomerella lagenarium (Colletotrichum lagenarium). The assay is described as follows: Fungicidal activity against Glomerella lagenarium (Colletotrichum lagenarium) liquid culture / cucumber / preventative (anthracnose). Type of assay: cell-based. Conditions: Colletotrichum orbiculare, 72 h; 20 ppm in the applied formulation; liquid culture (PDB), growth inhibition measured photometrically 3 to 4 days after application; vs untreated control; read-out: disease control. Here is the method:
Mycelia fragments or conidia suspensions of a fungus prepared either freshly from liquid cultures of the fungus or from cryogenic storage, are directly mixed into nutrient broth. DMSO solutions of the test compound (max. 10 mg/ml) are diluted with 0.025% Tween20 by a factor of 50 and 10 μl of this solution is pipetted into a microtiter plate (96-well format). The nutrient broth containing the fungal spores/mycelia fragments is then added to give an end concentration of the tested compound. The test plates are incubated in the dark at 24° C. and 96% relative humidity. The inhibition of fungal growth is determined photometrically after 2 to 7 days, depending on the pathosystem, and percent antifungal activity relative to the untreated check is calculated.
Conidia of the fungus from cryogenic storage are directly mixed into nutrient broth (PDB—potato dextrose broth). After placing a (DMSO) solution of test compound into a microtiter plate (96-well format), the nutrient broth containing the fungal spores is added. The test plates are incubated at 24° C. and the inhibition of growth is measured photometrically 3 to 4 days after application.
The following compounds at 20 ppm in the applied formulation give at least 80% disease control in this test when compared to untreated control under the same conditions, which show extensive disease development.

Assay [2] concerns Phakopsora pachyrhizi. The assay is described as follows: Fungicidal activity against Phakopsora pachyrhizi / soybean / leaf disc preventative (Asian soybean rust). Format: in vivo. The following applies: foliar, 200 ppm in the applied formulation, soybean leaf disks, vs untreated control, read-out: disease control. The method, then:
Leaf disks or leaf segments of various plant species are cut from plants grown in a greenhouse. The cut leaf disks or segments are placed in multiwell plates (24-well format) onto water agar. The leaf disks are sprayed with a test solution before (preventative) or after (curative) inoculation. Compounds to be tested are prepared as DMSO solutions (max. 10 mg/ml) which are diluted to the appropriate concentration with 0.025% Tween20 just before spraying. The inoculated leaf disks or segments are incubated under defined conditions (temperature, relative humidity, light, etc.) according to the respective test system. A single evaluation of disease level is carried out 3 to 14 days after inoculation, depending on the pathosystem. Percent disease control relative to the untreated check leaf disks or segments is then calculated. Soybean leaf disks are placed on water agar in multiwell plates (24-well format) and sprayed with the formulated test compound diluted in water. One day after application leaf discs are inoculated by spraying a spore suspension on the lower leaf surface. After an incubation period in a climate cabinet of 24-36 hours in darkness at 20° C. and 75% rh leaf disc are kept at 20° C. with 12 hours light/12 hours and 75% rh. The activity of a compound is assessed as percent disease control compared to untreated when an appropriate level of disease damage appears in untreated check leaf disks (12 to 14 days after application). The following compounds at 200 ppm in the applied formulation give at least 80% disease control in this test when compared to untreated control leaf disks under the same conditions, which show extensive disease development.

`CC(CNC(=O)c1ccc(-c2noc(C(F)(F)F)n2)cc1)=NOCc1ccc(F)cc1` [Compound 1.140, N-[2-[(4-fluorophenyl)methoxyimino]propyl]-4-[5-(trifluoromethyl)-1,2,4-oxadiazol-3-yl]benzamide]: the inhibition of growth at 20 ppm in assay [1] was not below 80%. Turning to `CC(C=NOCC(F)(F)F)NC(=O)c1ccc(-c2noc(C(F)(F)F)n2)cc1` (centres unmarked) [Compound 1.51, N-[1-methyl-2-(2,2,2-trifluoroethoxy-imino)ethyl]-4-[5-(trifluoromethyl)-1,2,4-oxadiazol-3-yl]benzamide], the pest or weed control at 200 ppm in assay [2] is not below 80%. For the same compound, in assay [1], the inhibition of growth at 20 ppm was not below 80%.

Consider `CC(C=NOCc1ccccc1)NC(=O)c1ccc(-c2noc(C(F)(F)F)n2)cc1` (centres unmarked) [Compound 1.47, N-(2-benzyloxyimino-1-methyl-ethyl)-4-[5-(trifluoromethyl)-1,2,4-oxadiazol-3-yl]benzamide], for which the pest or weed control at 200 ppm in assay [2] is not below 80%. Moreover, in assay [1], the inhibition of growth at 20 ppm was not below 80%. With `COc1ccc(CON=C(C)CNC(=O)c2ccc(-c3noc(C(F)(F)F)n3)cc2)cc1` [Compound 1.108, N-[2-[(4-methoxyphenyl)methoxyimino]propyl]-4-[5-(trifluoromethyl)-1,2,4-oxadiazol-3-yl]benzamide], the inhibition of growth at 20 ppm in assay [1] was not below 80%. `COc1ccccc1CON=CC(C)NC(=O)c1ccc(-c2noc(C(F)(F)F)n2)cc1` (centres unmarked) [Compound 1.23, N-[2-[(2-methoxyphenyl)methoxyimino]-1-methyl-ethyl]-4-[5-(trifluoromethyl)-1,2,4-oxadiazol-3-yl]benzamide]: the pest or weed control at 200 ppm in assay [2] is not below 80%. Consider `O=C(NCC=NOCc1ccc(F)cc1)c1ccc(-c2noc(C(F)(F)F)n2)cc1` [Compound 1.96, N-[2-[(4-fluorophenyl)methoxyimino]ethyl]-4-[5-(trifluoromethyl)-1,2,4-oxadiazol-3-yl]benzamide], for which the inhibition of growth at 20 ppm in assay [1] was not below 80%. On to `CC(C=NOCc1ccccc1F)NC(=O)c1ccc(-c2noc(C(F)(F)F)n2)cc1` (centres unmarked) [Compound 1.24, N-[2-[(2-fluorophenyl)methoxyimino]-1-methyl-ethyl]-4-[5-(trifluoromethyl)-1,2,4-oxadiazol-3-yl]benzamide], for which, in assay [2], the pest or weed control at 200 ppm is not below 80%. Besides, in assay [1], the inhibition of growth at 20 ppm is not below 80%. On to `CCCCON=C(C)CNC(=O)c1ccc(-c2noc(C(F)(F)F)n2)cc1` [Compound 1.128, N-(2-butoxyiminopropyl)-4-[5-(trifluoromethyl)-1,2,4-oxadiazol-3-yl]benzamide], for which the pest or weed control at 200 ppm in assay [2] is not below 80%. For the same compound, the inhibition of growth at 20 ppm in assay [1] is not below 80%.

As for `CCCCCCCCCCCCON=CCNC(=O)c1ccc(-c2noc(C(F)(F)F)n2)cc1` [Compound 1.73, N-(2-dodecoxyimino-ethyl)-4-[5-(trifluoromethyl)-1,2,4-oxadiazol-3-yl]benzamide], the pest or weed control at 200 ppm in assay [2] was not below 80%. The same measure, in the same setting: the figure for `Cc1ccc(CON=CCNC(=O)c2ccc(-c3noc(C(F)(F)F)n3)cc2)cc1` [Compound 1.63, N-[2-(p-tolylmethoxy-imino)ethyl]-4-[5-(trifluoromethyl)-1,2,4-oxadiazol-3-yl]benzamide] is not below 80%. The same measure, in the same setting: the same measure for `O=C(NCC=NOCc1c(Cl)cccc1Cl)c1ccc(-c2noc(C(F)(F)F)n2)cc1` [Compound 1.84, N-[2-[(2,6-dichlorophenyl)methoxyimino]ethyl]-4-[5-(trifluoromethyl)-1,2,4-oxadiazol-3-yl]benzamide]: not below 80%. For `CC(C=NOCc1ccc(Cl)cc1)NC(=O)c1ccc(-c2noc(C(F)(F)F)n2)cc1` (centres unmarked) [Compound 1.59, N-[2-[(4-chlorophenyl)methoxyimino]-1-methyl-ethyl]-4-[5-(trifluoromethyl)-1,2,4-oxadiazol-3-yl]benzamide], the pest or weed control at 200 ppm in assay [2] is not below 80%. Consider `COc1ccccc1CON=C(C)CNC(=O)c1ccc(-c2noc(C(F)(F)F)n2)cc1` [Compound 1.112, N-[2-[(2-methoxyphenyl)methoxyimino]propyl]-4-[5-(trifluoromethyl)-1,2,4-oxadiazol-3-yl]benzamide], for which, in assay [1], the inhibition of growth at 20 ppm was not below 80%.
